The target in this assay is H+/K+-ATPase (rabbit gastric mucosal microsomes) (Oryctolagus cuniculus (Rabbit), UniProt P27112). Briefly: In vitro screening test of H+/K+-ATPase inhibition (malachite green). Format: biochemical. As to conditions: pH 6.5, 37° C. 30 min, read-out: IC50, inhibitory effect on H+/K+-ATPase activity. From the text: This test example evaluates the inhibitory effects of the compounds of the present invention on the activity of H+/K+-ATPase by an in vitro screening test, and expresses them with the IC50 values of the compounds (obtained by calculating the inhibition rates at different concentrations).
• Compound solutions: The products (i.e., the compounds or the hydrochloride salt of compounds) obtained in the foregoing preparation examples of the present invention were each independently dissolved in DMSO to form solutions at suitable concentrations; • Buffer I: 50 mmol/L HEPEs-Tris, pH=6.5, 5 mmol/L magnesium chloride, […] valinomycin (J&K Scientific Ltd., goods No.: 227304); • Buffer II: 50 mmol/L HEPEs-Tris, pH=6.5, 5 mmol/L magnesium chloride, […] valinomycin, 5 mmol/L potassium chloride; • 5-adenosine triphosphate (ATP, Sigma-Aldrich, goods No.: A2383) solution: Dilute ATP with buffer I to 5 mM; • Malachite green solution: Dissolve 0.12 wt % malachite green (J&K Scientific Ltd., goods No.: 913120) in 2.5 mol/L sulfuric acid, 7.5 wt % ammonium molybdate (J&K Scientific Ltd., goods No.: 128321) and 11% Tween 20(V/V). During use, sulfuric acid, ammonium molybdate and Tween 20 are mixed in a ratio of 100:25:2; • Rabbit gastric mucosal microsomes (rich in H+/K+-ATPase, self-extracted), extracted by sucrose gradient centrifugation: The rabbit stomach was washed with tap water and 3M NaCl solution, respectively, and then the surface water was removed with filter paper. A pre-cooled homogenization buffer (4 ml/g tissue) was added and homogenized for 2-5 min in a tissue homogenizer. After the homogenizing, if there are large tissue particles, they can be removed by centrifugation (600 g, 10 min). The supernatant was then transferred to a clean centrifuge tube and centrifuged at 20,000 g for 30 min, then the supernatant was transferred to a clean centrifuge tube and further centrifuged at 100,000 g for 90 min and the precipitate was collected; the precipitate was suspended in homogenate and blown evenly, and the protein concentration was measured by the Bradford's method and adjusted to 10 mg/ml; 7.5 wt % Ficoll's layering solution was added in equal proportions. After centrifugation at 100,000 g for 60 min, the middle layer (H^+/K^+-ATPase-enriched gastric membranes) was collected in a clean centrifuge tube, diluted with homogenate by 4-5 times, and then centrifuged at 100,000 g for another 90 min, and the precipitate was collected; the precipitate was suspended in homogenate and homogenized in a glass homogenizer, and the protein concentration was measured by the Bradford's method and adjusted to 22.5 mg/ml. It was frozen at −80° C. and stored for future use.
5 μL of rabbit gastric mucosal microsomes (H^+/K^+-ATPase) was added to 45 μL of buffer II, then 5 μL of compound solution was added, and then 5 μL of 5 mM ATP solution was added to start the reaction and pre-react at 37° C. for 30 min. 15 μL of malachite green solution was added to terminate the reaction, balancing was conducted at room temperature for 20 min, and read the optical absorbance at 620 nm.
Meanwhile, the reaction of the same volume was carried out without addition of potassium chloride as a background, which was subtracted when calculating enzymatic activity.

For 27 molecules, IC50 results are on record in patent US20260001864A1, “COMPOUND CONTAINING SULFAMIDE STRUCTURE, AND PREPARATION METHOD THEREFOR AND APPLICATION THEREOF, AND PHARMACEUTICAL COMPOSITION AND APPLICATION” (Nanjing Shuohui Pharmatechnology Co., Ltd, priority 2021, published 2026).

Each structure is given as a SMILES string.

Chain of H+/K+-ATPase (rabbit gastric mucosal microsomes) (P27112 whole entry): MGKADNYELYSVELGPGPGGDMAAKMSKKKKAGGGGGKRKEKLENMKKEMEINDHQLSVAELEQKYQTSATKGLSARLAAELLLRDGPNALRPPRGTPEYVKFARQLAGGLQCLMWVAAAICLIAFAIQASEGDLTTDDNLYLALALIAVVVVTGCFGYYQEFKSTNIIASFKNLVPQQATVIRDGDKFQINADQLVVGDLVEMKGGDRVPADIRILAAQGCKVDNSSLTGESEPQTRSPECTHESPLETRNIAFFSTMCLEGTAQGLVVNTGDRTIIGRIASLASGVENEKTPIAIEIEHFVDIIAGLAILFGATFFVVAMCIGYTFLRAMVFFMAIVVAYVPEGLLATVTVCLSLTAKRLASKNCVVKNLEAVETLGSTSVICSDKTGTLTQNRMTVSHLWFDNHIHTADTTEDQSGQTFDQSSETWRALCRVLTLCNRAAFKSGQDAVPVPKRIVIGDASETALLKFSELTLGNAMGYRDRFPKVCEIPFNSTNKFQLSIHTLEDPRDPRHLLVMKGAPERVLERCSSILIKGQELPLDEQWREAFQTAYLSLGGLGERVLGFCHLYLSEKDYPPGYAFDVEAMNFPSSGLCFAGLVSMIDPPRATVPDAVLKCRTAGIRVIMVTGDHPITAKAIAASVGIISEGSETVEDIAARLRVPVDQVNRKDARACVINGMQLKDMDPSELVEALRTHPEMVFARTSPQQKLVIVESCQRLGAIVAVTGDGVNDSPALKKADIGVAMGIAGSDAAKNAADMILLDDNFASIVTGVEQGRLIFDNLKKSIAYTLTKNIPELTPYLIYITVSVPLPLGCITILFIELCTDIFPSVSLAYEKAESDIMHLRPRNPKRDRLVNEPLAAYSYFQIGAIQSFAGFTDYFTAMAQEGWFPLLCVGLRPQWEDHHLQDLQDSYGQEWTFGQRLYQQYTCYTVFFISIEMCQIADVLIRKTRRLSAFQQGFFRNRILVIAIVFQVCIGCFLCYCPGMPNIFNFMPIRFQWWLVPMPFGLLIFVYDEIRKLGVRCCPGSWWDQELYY
Chain of H+/K+-ATPase (rabbit gastric mucosal microsomes) (P18597 whole entry partner): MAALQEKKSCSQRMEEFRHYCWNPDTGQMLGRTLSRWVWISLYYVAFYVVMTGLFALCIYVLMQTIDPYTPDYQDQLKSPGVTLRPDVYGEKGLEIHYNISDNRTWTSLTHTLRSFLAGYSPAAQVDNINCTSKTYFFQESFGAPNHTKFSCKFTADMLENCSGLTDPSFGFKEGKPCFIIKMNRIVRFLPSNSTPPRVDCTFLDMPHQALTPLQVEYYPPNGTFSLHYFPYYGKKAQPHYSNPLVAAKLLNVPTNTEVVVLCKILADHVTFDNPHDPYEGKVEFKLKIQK

Consider `CCCCCOc1cccc(S(=O)(=O)n2cc(CNC)cc2-c2ccc(OCC3CCOCC3)cc2F)c1` [Compound 31], for which the IC50 came to 1210 nM.
The value for `CNCc1cc(-c2ccc(OC(C)c3c(F)cccc3F)cc2F)n(S(=O)(=O)c2cccc(OCC3CC3)c2)c1` (stereo not drawn) [Compound 72] was 342 nM; that for `CNCc1cc(-c2ccc(OCc3cc(F)ccc3F)cc2F)n(S(=O)(=O)c2cccc(OCCOC)c2)c1` [Compound 86] was 34.4 nM.
The value for `CNCc1cc(-c2ccc(OCC3CCOCC3)cc2F)n(S(=O)(=O)c2cccc(OCCCOC)c2)c1` [Compound 32] was 822 nM.
Consider `CNCc1cc(-c2ccc(OC(C)C3CCOCC3)cc2F)n(S(=O)(=O)c2c(F)cccc2F)c1` (stereo not drawn) [Compound 16], for which the IC50 came to 253 nM.
As for `CNCc1cc(-c2ccc(OCc3ccccc3OC(F)F)cc2F)n(S(=O)(=O)c2cccnc2)c1` [Compound 59], the IC50 was 41.3 nM.
In the case of `CNCc1cc(-c2ccc(OCc3ccc(F)cc3F)cc2F)n(S(=O)(=O)c2cccnc2)c1` [Compound 55], the IC50 worked out at 8.6 nM.
Turning to `CNCc1cc(-c2ccc(OCc3c(F)cccc3F)cc2F)n(S(=O)(=O)c2cccnc2)c1` [Compound 56], the IC50 was found to be 13.3 nM.
To `CNCc1cc(-c2ccc(OC(C)C3CCOCC3)cc2F)n(S(=O)(=O)c2ccc(F)cc2F)c1` (stereo not drawn) [Compound 17] belongs 265 nM.
The value for `CNCc1cc(-c2ccc(OCc3cc(F)ccc3F)cc2F)n(S(=O)(=O)c2ccc(C)c(F)c2)c1` [Compound 81] was 56.6 nM; that for `CNCc1cc(-c2ccc(OCC3CCN(C)CC3)cc2F)n(S(=O)(=O)c2cccnc2)c1` [Compound 22] was 458 nM.
Take `CNCc1cc(-c2ccc(OCC3CCN(C(C)=O)CC3)cc2F)n(S(=O)(=O)c2cccnc2)c1` [Compound 23]: the IC50 came to 908 nM.
The value for `CNCc1cc(-c2ccc(OCc3cc(F)ccc3F)cc2F)n(S(=O)(=O)c2cccnc2)c1` [Compound 54] was 17.8 nM; that for `CNCc1cc(-c2ccc(OCc3cccnc3C)cc2F)n(S(=O)(=O)c2cccnc2)c1` [Compound A2] was 155 nM.
To `CNCc1cc(-c2ccc(OCc3ccc(F)c(F)c3)cc2F)n(S(=O)(=O)c2cccnc2)c1` [Compound 57] belongs 46.3 nM.
As to `CNCc1cc(-c2ccc(OCc3ccncc3)cc2F)n(S(=O)(=O)c2cccnc2)c1` [Compound 74], the IC50 turned out to be 564 nM.
As to `CNCc1cc(-c2ccc(OC[C@@H]3CO3)cc2F)n(S(=O)(=O)c2cccnc2)c1` [Compound 50], the IC50 is 114 nM.
To `CNCc1cc(-c2ccc(OC(C)c3c(F)cccc3F)cc2F)n(S(=O)(=O)c2cccc(OCCCCOC)c2)c1` (stereo not drawn) [Compound 91] belongs 693 nM; to `CNCc1cc(-c2ccc(OCC3CCCC3)cc2F)n(S(=O)(=O)c2cccnc2)c1` [Compound 3], 20.9 nM.
Take `CNCc1cc(-c2ccc(OCC3CCCCC3)cc2F)n(S(=O)(=O)c2cccnc2)c1` [Compound 4]: the IC50 worked out at 30.9 nM.
To `CNCc1cc(-c2ccc(OCC(C)C)cc2F)n(S(=O)(=O)c2cccnc2)c1` [Compound 44] belongs 500 nM; to `CNCc1cc(-c2ccc(OCc3ccc4ccccc4c3)cc2F)n(S(=O)(=O)c2cccc(OCCCCOC)c2)c1` [Compound 90], 2690 nM.
The value for `CCCCCOc1cccc(S(=O)(=O)n2cc(CNC)cc2-c2ccc(OCC3CCCCC3)cc2F)c1` [Compound 36] was 2270 nM; that for `CNCc1cc(-c2ccc(OCc3ccc(OC(F)F)cc3)cc2F)n(S(=O)(=O)c2cccnc2)c1` [Compound 61] was 51.3 nM.
To `CNCc1cc(-c2ccc(OCc3cccc4c3OCCO4)cc2F)n(S(=O)(=O)c2cccc(C#N)c2)c1` [Compound 97] belongs 11.9 nM.
With `CNCc1cc(-c2ccc(OCC3CCOCC3)cc2F)n(S(=O)(=O)c2cccc(C(F)(F)F)c2)c1` [Compound 39], the IC50 is 34.6 nM.
To `CNCc1cc(-c2ccc(OCC3CCC3)cc2F)n(S(=O)(=O)c2cccnc2)c1` [Compound 2] belongs 24.5 nM.
